# Source: paper PMC7255010, “Small-molecule activating SIRT6 elicits therapeutic effects and synergistically promotes anti-tumor activity of vitamin D3 in colorectal cancer” (Theranostics, 2020)
# Where “and” joins values, the source holds several entries; their conditions need not be identical. Equal entries are not always repeated.
# How the values were obtained:
# FHC cells = assay: LDH assay of cytotoxicity in FHC cells; format: cell-based; conditions: 48 h
# Description: Cell cytotoxicity was assessed by measuring LDH release from damaged or dead cells using a Cytotoxicity LDH Assay Kit-WST (Dojindo) following the manufacturer's instructions. Briefly, 5 × 10^3 cells per well were plated in 96-well plates. […] The final DMSO concentration in the medium was 0.1%. The amount of LDH leakage from the cells was determined by measuring the absorbance at 490 nm using a microplate reader (Synergy H4 Hybrid Reader, BioTek). The percentage of cytotoxicity was calculated as follows: [(test sample - low control)/ (high control - low control)] × 100, where low control is the absorbance of the culture medium without any added extract, and high control is the absorbance of the culture medium in which the cells were treated with 1% (v/v) Triton X-100 to achieve 100% LDH release. Each data point is presented as the mean ± s.d. of three independent experiments.
# SIRT6 [1] = biological target: T1, SIRT6 (Homo sapiens, UniProt Q8N6T7); assay: Cellular thermal shift assay (CETSA) in HCT116 cells; format: cell-based
# Description: CETSA was conducted as previously described. HCT116 cells were seeded in 10-cm cell culture dishes and grown to ~90% confluence. […] Cell pellets were collected by centrifugation (1,000 × g, 5 min, 4 °C), resuspended in 600 μL of 1× PBS, and distributed into different 0.2-mL tubes, each with 40 μL of cell suspension. The tubes were heated at the indicated temperature endpoints (38.5-51.5 °C) for 3 min in a PCR thermocycler. Immediately after heating, the tubes were incubated at room temperature for another 3 min. The samples were subjected to two freeze-thaw cycles in liquid nitrogen. Each cell lysate was centrifuged (15,000 × g for 20 min at 4 °C), and 25 μL of supernatant was collected. The supernatants were lysed in 25 μL of 2× SDS loading buffer at 95 °C for 10 min. Then, the samples were centrifuged, and the supernatants were analyzed by western blotting. Quantification of the SIRT6 level was performed with ImageJ V4. The signal intensity of each protein band on the western blots was normalized to the signal intensity observed at 38.5 °C. The corresponding signal intensities were plotted against temperature in GraphPad Prism V7. Each data point is shown as the mean ± s.e.m. of four independent experiments.
# SIRT6 [2] = biological target: T1, SIRT6; assay: FDL assay of SIRT6 deacylase activity (EALPKK-Myr-AMC); format: biochemical; parameters: WT (wild-type) full-length human SIRT6 was inserted into the pET28a-LIC vector; made in house; host or cells: Escherichia coli BL21 (DE3); conditions: myristoyl peptide EALPKK-Myr-AMC
# Description: According to previously described methods, WT (wild-type) full-length human SIRT6 was inserted into the pET28a-LIC vector (Addgene plasmid #26094). The plasmid was transformed into Escherichia coli BL21 (DE3) cells. Protein was purified using a nickel column and gel filtration. Purified protein was dialyzed into assay buffer (50 mM Tris-HCl [pH 8.0], 137 mM NaCl, 2.7 mM KCl, and 1 mM MgCl2) and used in all in vitro assays performed in this study.
# […], 5 μM WT SIRT6 was incubated in a 50-μL reaction mixture (2.5 mM NAD^+, […], compounds/DMSO, and assay buffer) at 37 °C for 2 h, quenched with 40 mM nicotinamide, and developed with 6 mg/mL trypsin for another 30 min at 25 °C. […] Fluorescence intensity was measured using a microplate reader (Synergy H4 Hybrid Reader, BioTek) at excitation and emission wavelengths of 360 nm and 460 nm, respectively. EC50 values were calculated by fitting the data points with the dose-response function in GraphPad Prism V7 (GraphPad Software). Each experiment was independently repeated three times in technical triplicates.
# FHC = assay: Cell proliferation, CCK-8, non-cancerous colon cell line; format: cell-based; conditions: Homo sapiens, CCK-8, 48 h, Figure S6, mean ± s.e.m. of three experiments
# [3] = system: PDX tumors from CRC patients #1 and #2; assay: CRC PDX models; format: in vivo, nude mice; conditions: 30 mg/kg intraperitoneally every other day for 12 days, two PDX models
# Description: All animal studies were performed following federal and institutional guidelines approved by the Institutional Animal Care and Use Committee at Shanghai Jiao-Tong University School of Medicine. To establish the CDXs, HCT116 cells (1 × 10^6) suspended in 100 μL of 1× PBS were injected subcutaneously into the flanks of six-week-old male BALB/c nude mice. To establish the PDXs, primary tumors resected from two independent CRC patients (patient #1 and #2) were collected in the culture medium. The necrotic and supporting tissues were carefully removed using sterilized surgical blades. The gross tumor was cut into fragments (2-3 mm in diameter) and inoculated subcutaneously into the flanks of nude mice. The mice were monitored daily, and caliper measurements began when tumors became visible. The tumor volume was monitored every other day via calipers. The tumor volume was calculated using the following formula: (L × W ^2) / 2, where L and W refer to the tumor diameter along the longitudinal and transverse axes, respectively. When the mean tumor volume was approximately 100 to 250 mm^3, the mice were randomly grouped (n = 6 per group for CDXs, n = 8 per group for PDXs), and treatment was initiated. […] After treatment or if meeting the humane endpoint criteria, the mice were sacrificed by CO2 asphyxiation. The tumors were dissected, imaged, and weighed. […]
# SIRT6 [4] = biological target: T1, SIRT6; assay: Histone H3 deacetylation in HEK293T cells (western blot); format: cell-based; parameters: endogenous in cells; host or cells: HEK293T; conditions: dose-dependent
# Description: Western blot analysis was performed as described previously. […] After 48 h of treatment, the cells were lysed with 1× SDS and separated by SDS-PAGE, followed by incubation with specific primary antibodies overnight at 4 °C and then with HRP-linked anti-rabbit IgG (#7074, Cell Signaling Technology) or HRP-linked anti-mouse IgG (#7076, Cell Signaling Technology). An Immobilon Western Chemiluminescent HRP Substrate Kit (Merck Millipore) was used for detection. Information regarding the primary antibodies can be found in Table S6. Quantification of western blot data was performed using ImageJ V4.
# T1 sequence (Q8N6T7 whole entry): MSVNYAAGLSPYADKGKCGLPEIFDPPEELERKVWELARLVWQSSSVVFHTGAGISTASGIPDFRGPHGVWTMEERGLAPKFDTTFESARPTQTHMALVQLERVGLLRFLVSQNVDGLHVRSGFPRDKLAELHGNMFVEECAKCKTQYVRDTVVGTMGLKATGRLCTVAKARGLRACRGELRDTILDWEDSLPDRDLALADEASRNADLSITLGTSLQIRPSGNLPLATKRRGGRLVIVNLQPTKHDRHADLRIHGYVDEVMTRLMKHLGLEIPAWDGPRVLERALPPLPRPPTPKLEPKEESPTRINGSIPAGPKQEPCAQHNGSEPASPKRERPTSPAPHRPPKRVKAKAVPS
structure (smiles),measurement,setting,value
Cc1cc(F)c(Br)cc1NS(=O)(=O)c1ccc(NS(=O)(=O)c2cc(Cl)cc(Cl)c2)cc1CN1CCOC[C@H]1C [MDL-811],cytotoxicity (LDH release),FHC cells,low cytotoxic effect
same,Melting Temperature (Tm) of SIRT6,"SIRT6 [1]; 10 µM MDL-811, 24 h, HCT116 cells, DMSO 45.8 ± 0.3, mean ± s.e.m., four experiments",47.6 ± 0.1 °C and 47.6 °C
same,ΔTm at 10 µM,SIRT6 [1]; HCT-116,1.8 ± 0.2 °C
same,effect on SIRT6 deacylation,SIRT6 [2],no apparent effect
same,IC50,FHC,24.4 ± 0.5 µM
same,tumor growth,[3],strong tumor regression in both PDX models
same,"deacetylation of H3K9Ac, H3K18Ac, and H3K56Ac",SIRT6 [4],"significantly enhanced the deacetylation of SIRT6 (H3K9Ac, H3K18Ac, and H3K56Ac)"
